Data set [1] relates to ischemized myocardium of cats. In words: ST-segment elevation during 5 min occlusions of coronary artery (acute coronary deficiency). The format is in vivo. To be noted: for change in mean elevation of ST-segment vs control occlusion: cats, 1.0 mg/kg i.v. The method, then:
These experiments were conducted in cats weighing 2,5-4,0 kg under anasthesia by i.v. injection of nembutal (40 mg/kg) in open chest conditions. Epicardium electrogram in 3-4 leads was registered in “Mingograph-81”. The value of mean elevation of ST-segment during 5 min occlusions of anterior left descending coronary artery with 15 min reperfusions between them was the main index of intensity of reversible ischemized damage of myocardium.
The statistical calculation was carried out with non-parametric Wilcocson method for associated variants.

Data set [2] has as its system outbred male mice. In words: rotarod test (myorelaxant activity). The format is in vivo. To be noted: for time of remaining on the rotarod: cut-off 120 sec. The protocol: The myorelaxant activity of choosen compounds were studied in the outbred male mice weighing 22-25 g in rotarod test [Voronina T. A. et al., in: “Phenazepam”, Naukova Dumka, Kiev, 1982, p.145]. The animals were placed on the horizontal rotarod (D=2 cm) calibrated for a fixed speed of 4 rpm. According to the rotarod experimental protocol, normal motor coordination was defined by the ability of the animals to remain on the rotarod for an arbitrarily selected time of 120 sec.
Background: The rotarod test checks motor coordination on a turning rod.

The nature of data set [3]: acute toxicity after per os administration. To be noted: mouse, in vivo, oral; outbred mice, per os, 1% starch suspension, Litchfield-Wilcocson. The method, then:
(§1) The acute toxicity was measured in outbred mice after per os administration of used drugs in the 1% starch suspension. The lethal doses were calculated according to Litchfield-Wilcocson' method. […].

Data set [4] deals with outbred mice. In words: acute toxicity after per os administration. To be noted: mouse, in vivo. The protocol: as §1
For data set [5], the system named is outbred male rats. In words: conflict Vogel test (punished licking of water). Format: in vivo. The conditions noted are these: M ± mx. The method, then: The study of anxiolytic activity of chosen compounds was carried out in the experiments with outbred male rats weighing 180-200 g in standard conflict Vogel' procedure [Voronina T. A. et al., in: “Phenazepam”, Naukova Dumka, Kiev, 1982, p.89, 93, 146]. The main aim of the initial step of experiments was the training of rats to develop the feeling of thirst with following experience of water licking from bottle in the experimental chamber. The animals were deprived of water for 24 hours and were placed in the test chamber for 5-min adaptation period during which they had free access to the drinking bottle. After another 24 h deprivation period the rats were placed again in the test chamber and were allowed to drink water for 5 sec. Immediately afterwards drinking attempts were punished by electric shock (0,5 mA). Under this collision of drinking and protective reflexes the extremal situation was developed. In this situation the anxiety of punishment prevented the licking process. The number of shocks received throughout a 5-min experimental session was recorded.

Experimental findings from patent US6376666B1 (Nauchno-Issledovatelsky Institut Farmakologii Rossiiskoi …, priority 1994, dated 2002) are described below.

As a reminder, the LD50 is the dose at which mortality reaches 50%. A higher LD50 goes with a less toxic substance.

The structures appear in SMILES notation. Marks after values point to notes of the source that are not given here.

In the case of `CCOc1ccc2nc(SCCN(CC)CC)[nH]c2c1` [Compound IX, 2-[2-(Diethylamino)ethylthio]-5-ethoxybenz-imidazole], the “change in mean elevation of ST-segment vs control occlusion” value (“change in mean elevation of ST-segment” for short) in data set [1] (occlusion 20 min after injection, 15 sec of reperfusion) is −0.8* mv; in data set [1] (occlusion 20 min after injection, 30 sec of occlusion), −0.7 mv; in data set [1] (occlusion 20 min after injection, 2 min of occlusion) it was −1.4* mv; in data set [1] (occlusion 20 min after injection, 3 min of occlusion), −1.4* mv; in data set [1] (occlusion 20 min after injection, 5 min of occlusion), −1.2 mv; in data set [1] (occlusion 40 min after injection, 15 sec of reperfusion), −1.0* mv. The “change in mean elevation of ST-segment” value in data set [1] (occlusion 40 min after injection, 30 sec of occlusion) is recorded as −0.5 mv; in data set [1] (occlusion 40 min after injection, 1 min of occlusion), −0.5* mv; in data set [1] (occlusion 40 min after injection, 2 min of occlusion), −1.0* mv; in data set [1] (occlusion 40 min after injection, 3 min of occlusion), −1.2 mv; in data set [1] (occlusion 40 min after injection, 5 min of occlusion), −1.0 mv; in data set [1] (occlusion immediately after injection, 15 sec of reperfusion) it was −1.2* mv. Besides, the “change in mean elevation of ST-segment” value in data set [1] (occlusion immediately after injection, 30 sec of occlusion) was −1.8** mv; in data set [1] (occlusion immediately after injection, 1 min of occlusion) it was −1.9** mv; in data set [1] (occlusion immediately after injection, 2 min of occlusion) it was −2.4** mv; in data set [1] (occlusion immediately after injection, 3 min of occlusion), −1.9** mv; in data set [1] (occlusion immediately after injection, 5 min of occlusion), −2.2** mv. The “duration of anti-ischemic effect after injection” value in data set [1] (cats, 1,0 mg/kg i.v.) is listed as 40 min. Also, the “effect on mean elevation of ST-segment during 5 min occlusion, in words” value in data set [1] (cats, 1,0 mg/kg i.v.) was “decreased the mean elevation of ST-segment”.
Turning to `CCOc1ccc2nc(SCCN3CCOCC3)[nH]c2c1` [XII, 2-[2-(Morpholino)ethylthio]-5-ethoxybenzimidazole], the “time of remaining on the rotarod” value in data set [2] (0.01 mg/kg) is 120.0 + 0 sec; in data set [2] (0.1 mg/kg), 120.0 + 0 sec; in data set [2] (1.0 mg/kg) it was 120.0 + 0 sec; in data set [2] (5.0 mg/kg) it was 120.0 + 0 sec; in data set [2] (10.0 mg/kg), 120.0 + 0 sec; in data set [2] (20.0 mg/kg), 118.8 ± 1.6 s. For the same compound, the “time of remaining on the rotarod” value in data set [2] (50.0 mg/kg) worked out at 111.3 ± 7.5 s. Besides, the “effect on motor coordination in rotarod test, in words” value in data set [2] (dose range 0,01 mg/kg-50 mg/kg) is recorded as “no effect on the motor coordination”. Also, the LD50 in data set [3] turned out to be 1160 mg/kg. Also, the “toxicity, conclusion in words” value in data set [4] was “not toxic”. The “number of punished lickings (shocks received in 5-min session)” value in data set [5] (1.0 mg/kg i.p.) is given as 15.3 ± 3.4; in data set [5] (5.0 mg/kg i.p.), 19.0 ± 2.5; in data set [5] (10.0 mg/kg i.p.) it was 15.4 ± 2.5; in data set [5] (20.0 mg/kg i.p.), 28.0 ± 5.8.
